A short description of series [1]: Inhibition of CYP3A4 in mouse liver using luciferin-IPA as substrate microsome preincubated with compound for 10 mins followed by NADPH addition and measured after 5 mins. Format: ADME, microsomes.
Series [2] can be described thus: Apparent permeability across apical to basolateral side in human Caco-2 cells assessed as drug recovery. It counts as ADME, cell-based. The conditions noted are these: read-out: Drug recovery. On the technique in general: Caco-2 monolayers are a common model of the intestinal barrier.
For series [3], the target named is T1, Cytochrome P450 3A4 (Homo sapiens, UniProt P08684). Kind of series: Inhibition of CYP3A4 in human Hepatocyte using Luciferin-IPA as substrate. Format: ADME, cell-based.
T1 sequence (P08684 whole entry): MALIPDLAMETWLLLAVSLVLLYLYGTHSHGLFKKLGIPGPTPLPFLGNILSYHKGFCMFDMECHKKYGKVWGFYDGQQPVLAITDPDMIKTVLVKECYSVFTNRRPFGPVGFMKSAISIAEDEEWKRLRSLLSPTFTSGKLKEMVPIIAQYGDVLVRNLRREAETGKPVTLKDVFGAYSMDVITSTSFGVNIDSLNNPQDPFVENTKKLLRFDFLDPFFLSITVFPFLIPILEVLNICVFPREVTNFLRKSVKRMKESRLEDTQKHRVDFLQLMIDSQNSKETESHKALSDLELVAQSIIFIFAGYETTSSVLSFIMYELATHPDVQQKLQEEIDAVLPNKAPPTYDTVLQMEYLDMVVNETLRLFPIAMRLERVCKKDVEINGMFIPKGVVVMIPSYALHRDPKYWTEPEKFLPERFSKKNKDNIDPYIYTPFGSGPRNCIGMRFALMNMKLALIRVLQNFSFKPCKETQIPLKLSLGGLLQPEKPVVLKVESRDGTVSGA
The target in series [4] is T2, Cytochrome P450 2B6 (Homo sapiens, UniProt P20813).
T2 sequence (P20813 whole entry): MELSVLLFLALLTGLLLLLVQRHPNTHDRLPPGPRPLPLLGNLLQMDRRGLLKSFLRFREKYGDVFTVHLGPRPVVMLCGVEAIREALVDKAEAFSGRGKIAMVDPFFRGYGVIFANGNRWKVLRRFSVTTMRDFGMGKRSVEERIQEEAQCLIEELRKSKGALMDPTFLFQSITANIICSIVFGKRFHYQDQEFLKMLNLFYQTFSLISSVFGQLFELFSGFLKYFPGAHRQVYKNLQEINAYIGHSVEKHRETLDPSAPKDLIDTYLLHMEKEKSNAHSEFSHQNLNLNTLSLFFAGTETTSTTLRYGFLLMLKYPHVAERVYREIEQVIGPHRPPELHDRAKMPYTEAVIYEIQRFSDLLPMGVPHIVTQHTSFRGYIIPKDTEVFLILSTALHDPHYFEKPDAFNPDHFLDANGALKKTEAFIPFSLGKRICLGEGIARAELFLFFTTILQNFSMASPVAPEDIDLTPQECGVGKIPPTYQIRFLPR
Kind of series: Inhibition of CYP2B6 (unknown origin) using Bupropion as substrate. Format: ADME.

The target in series [5] is Cytochrome P450 2C19 (Homo sapiens, UniProt P33261). Kind of series: Inhibition of CYP2C19 (unknown origin) using S-mephenytoin as substrate. Format: ADME.
Series [6] has as its target T3, Cytochrome P450 2C8 (Homo sapiens, UniProt P10632).
T3 sequence (P10632 whole entry): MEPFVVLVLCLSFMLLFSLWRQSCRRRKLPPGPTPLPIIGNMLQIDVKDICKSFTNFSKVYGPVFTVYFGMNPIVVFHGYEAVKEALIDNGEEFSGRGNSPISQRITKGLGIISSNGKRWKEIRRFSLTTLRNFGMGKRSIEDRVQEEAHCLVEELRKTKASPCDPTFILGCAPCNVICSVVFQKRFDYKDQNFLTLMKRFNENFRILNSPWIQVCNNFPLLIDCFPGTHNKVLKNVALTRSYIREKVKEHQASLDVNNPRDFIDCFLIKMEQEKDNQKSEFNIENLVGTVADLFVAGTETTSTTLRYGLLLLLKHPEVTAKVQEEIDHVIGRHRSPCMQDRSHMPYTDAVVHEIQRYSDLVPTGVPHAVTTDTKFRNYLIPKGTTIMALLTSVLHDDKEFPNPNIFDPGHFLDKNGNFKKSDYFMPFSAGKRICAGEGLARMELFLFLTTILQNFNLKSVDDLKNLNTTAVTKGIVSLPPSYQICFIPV
Kind of series: Inhibition of CYP2C8 (unknown origin) using Amodiaquine as substrate. Format: ADME.

Series [7] can be described thus: Metabolic stability in human liver microsome assessed as intrinsic clearance. The conditions noted are these: microsomes. Format: ADME. For orientation: Liver microsomes are a subcellular fraction often used to study metabolism.
Series [8] concerns the target Cytochrome P450 2C9 (Homo sapiens, UniProt P11712). Nature of the series: Inhibition of CYP2C9 (unknown origin) using Diclofenac as substrate. It counts as ADME.
The nature of series [9]: Tlast in CD-1 mouse at 5 mg/kg, iv measured upto 8 hrs by LC-MS/MS analysis. Format: ADME, organism-based. The conditions noted are these: in vivo.
In series [10] the target is T4, P-gp (ABCB1) (Homo sapiens, UniProt P08183). Nature of the series: Inhibition of P-gp in human Caco-2 cells at 1 uM in presence of paclitaxel relative to control. It counts as cell-based. As to conditions: Caco-2, probe paclitaxel.
T4 sequence (P08183 whole entry): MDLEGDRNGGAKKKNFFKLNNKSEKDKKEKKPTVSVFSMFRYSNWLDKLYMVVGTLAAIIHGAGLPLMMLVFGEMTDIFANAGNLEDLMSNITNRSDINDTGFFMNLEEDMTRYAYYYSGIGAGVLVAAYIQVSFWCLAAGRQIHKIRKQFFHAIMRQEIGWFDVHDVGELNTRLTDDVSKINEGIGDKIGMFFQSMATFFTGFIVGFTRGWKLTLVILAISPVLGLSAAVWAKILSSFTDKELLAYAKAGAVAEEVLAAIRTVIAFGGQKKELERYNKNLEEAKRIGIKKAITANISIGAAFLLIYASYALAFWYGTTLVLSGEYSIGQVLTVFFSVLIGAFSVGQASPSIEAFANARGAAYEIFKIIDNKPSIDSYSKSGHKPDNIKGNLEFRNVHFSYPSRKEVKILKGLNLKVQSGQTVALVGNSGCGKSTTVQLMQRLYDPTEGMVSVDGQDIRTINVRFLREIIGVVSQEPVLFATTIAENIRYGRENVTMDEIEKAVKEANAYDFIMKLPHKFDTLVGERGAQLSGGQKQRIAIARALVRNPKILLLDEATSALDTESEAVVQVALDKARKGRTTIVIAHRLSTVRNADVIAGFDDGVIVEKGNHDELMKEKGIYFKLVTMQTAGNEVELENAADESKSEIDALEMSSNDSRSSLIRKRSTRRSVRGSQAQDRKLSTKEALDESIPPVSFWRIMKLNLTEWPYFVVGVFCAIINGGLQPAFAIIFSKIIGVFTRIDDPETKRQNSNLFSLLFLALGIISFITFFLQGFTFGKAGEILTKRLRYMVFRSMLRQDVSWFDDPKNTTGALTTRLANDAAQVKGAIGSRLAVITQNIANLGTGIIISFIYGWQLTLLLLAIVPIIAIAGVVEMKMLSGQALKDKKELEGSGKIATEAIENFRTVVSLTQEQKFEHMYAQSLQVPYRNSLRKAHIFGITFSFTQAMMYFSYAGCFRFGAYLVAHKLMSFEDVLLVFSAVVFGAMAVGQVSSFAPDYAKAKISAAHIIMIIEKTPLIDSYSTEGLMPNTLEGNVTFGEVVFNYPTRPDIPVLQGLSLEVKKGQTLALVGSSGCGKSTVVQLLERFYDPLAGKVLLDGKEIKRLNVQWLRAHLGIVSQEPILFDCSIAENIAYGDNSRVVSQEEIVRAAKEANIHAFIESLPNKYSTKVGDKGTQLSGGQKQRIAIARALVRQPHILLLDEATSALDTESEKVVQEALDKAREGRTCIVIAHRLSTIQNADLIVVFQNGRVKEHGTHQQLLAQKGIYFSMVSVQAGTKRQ
Series [11] can be described thus: Metabolic stability in monkey liver microsome assessed as half life. Format: ADME, Macaca mulatta. The conditions noted are these: rhesus monkey, liver microsomes.
The target of series [12] is T1, Cytochrome P450 3A4. Kind of series: Inhibition of CYP3A4 (unknown origin) using Midazolam as substrate. Format: ADME.
A short description of series [13]: Metabolic stability in mouse liver microsome assessed as half life. The conditions noted are these: liver microsomes. Format: ADME.
For series [14], the target named is ATP-binding cassette sub-family C member 2 (Homo sapiens, UniProt Q92887). Nature of the series: Inhibition of MRP2 (unknown origin) ATPase activity.
Chain of ATP-binding cassette sub-family C member 2 (Q92887 whole entry): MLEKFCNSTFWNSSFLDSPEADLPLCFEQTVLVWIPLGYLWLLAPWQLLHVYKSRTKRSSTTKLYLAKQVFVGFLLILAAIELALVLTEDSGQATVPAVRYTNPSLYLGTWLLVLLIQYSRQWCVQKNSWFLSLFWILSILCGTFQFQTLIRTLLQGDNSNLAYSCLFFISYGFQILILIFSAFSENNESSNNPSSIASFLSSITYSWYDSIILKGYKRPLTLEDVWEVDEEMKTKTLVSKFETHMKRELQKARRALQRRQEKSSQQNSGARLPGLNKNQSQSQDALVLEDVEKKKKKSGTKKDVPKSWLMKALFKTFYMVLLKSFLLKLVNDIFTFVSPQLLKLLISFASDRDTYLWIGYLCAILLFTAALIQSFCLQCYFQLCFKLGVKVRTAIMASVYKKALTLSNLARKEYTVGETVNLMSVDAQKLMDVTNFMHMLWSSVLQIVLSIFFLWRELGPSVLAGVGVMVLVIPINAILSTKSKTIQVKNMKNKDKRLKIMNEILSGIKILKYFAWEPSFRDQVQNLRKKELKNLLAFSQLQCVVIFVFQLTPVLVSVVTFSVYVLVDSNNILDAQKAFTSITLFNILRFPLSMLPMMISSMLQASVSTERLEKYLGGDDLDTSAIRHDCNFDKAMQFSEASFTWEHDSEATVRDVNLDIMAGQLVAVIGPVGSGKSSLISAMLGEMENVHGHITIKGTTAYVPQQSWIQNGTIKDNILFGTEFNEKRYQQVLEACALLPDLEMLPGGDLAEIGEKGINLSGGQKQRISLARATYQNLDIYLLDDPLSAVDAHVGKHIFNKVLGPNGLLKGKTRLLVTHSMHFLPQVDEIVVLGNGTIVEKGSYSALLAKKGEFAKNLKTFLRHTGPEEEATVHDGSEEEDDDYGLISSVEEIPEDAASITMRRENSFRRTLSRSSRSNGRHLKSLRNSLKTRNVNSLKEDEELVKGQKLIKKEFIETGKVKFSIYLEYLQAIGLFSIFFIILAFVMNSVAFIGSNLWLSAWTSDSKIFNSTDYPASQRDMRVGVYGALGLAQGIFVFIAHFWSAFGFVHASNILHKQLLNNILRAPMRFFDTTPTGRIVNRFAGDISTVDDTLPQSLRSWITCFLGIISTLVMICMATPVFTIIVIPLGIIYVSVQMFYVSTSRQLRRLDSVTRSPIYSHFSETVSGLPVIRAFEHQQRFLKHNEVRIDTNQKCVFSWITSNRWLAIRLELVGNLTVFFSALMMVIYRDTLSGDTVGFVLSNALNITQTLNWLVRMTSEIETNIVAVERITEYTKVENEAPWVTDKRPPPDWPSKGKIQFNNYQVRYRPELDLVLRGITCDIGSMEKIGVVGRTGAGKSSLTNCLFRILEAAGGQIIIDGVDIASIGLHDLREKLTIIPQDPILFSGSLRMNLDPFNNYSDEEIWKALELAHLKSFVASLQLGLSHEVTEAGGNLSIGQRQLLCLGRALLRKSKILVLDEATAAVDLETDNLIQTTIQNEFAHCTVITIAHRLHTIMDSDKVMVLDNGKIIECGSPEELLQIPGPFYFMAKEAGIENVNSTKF
Series [15] concerns the target T4, P-gp (ABCB1). Kind of series: Inhibition of P-gp in human Caco-2 cells at 10 uM in presence of paclitaxel relative to control. It counts as cell-based. As to conditions: Caco-2, probe paclitaxel.
Series [16] deals with T5, Cytochrome P450 1A2 (Homo sapiens, UniProt P05177).
T5 sequence (P05177 whole entry): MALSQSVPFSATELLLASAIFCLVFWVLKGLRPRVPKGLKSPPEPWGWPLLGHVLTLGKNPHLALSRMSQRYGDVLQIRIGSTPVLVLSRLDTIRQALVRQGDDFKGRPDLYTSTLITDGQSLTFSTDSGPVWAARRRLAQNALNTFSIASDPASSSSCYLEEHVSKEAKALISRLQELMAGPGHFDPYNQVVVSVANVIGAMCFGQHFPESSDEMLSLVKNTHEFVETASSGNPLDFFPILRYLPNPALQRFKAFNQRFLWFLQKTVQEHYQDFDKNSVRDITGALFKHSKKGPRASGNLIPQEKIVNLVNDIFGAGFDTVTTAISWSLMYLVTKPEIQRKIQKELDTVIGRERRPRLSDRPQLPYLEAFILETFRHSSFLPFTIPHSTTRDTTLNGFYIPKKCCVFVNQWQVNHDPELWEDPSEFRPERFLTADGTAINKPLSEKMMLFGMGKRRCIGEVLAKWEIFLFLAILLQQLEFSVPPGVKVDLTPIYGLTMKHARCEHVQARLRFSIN
Kind of series: Inhibition of CYP1A2 (unknown origin) using Phenacetin as substrate. Format: ADME.

In series [17] the target is T4, P-gp (ABCB1). Nature of the series: Inhibition of P-gp in human Caco-2 cells at 0.1 uM in presence of paclitaxel relative to control. It counts as cell-based. The conditions noted are these: Caco-2, probe paclitaxel.
The nature of series [18]: Inhibition of MRP1 (unknown origin) ATPase activity. The arrangement: species or system Homo sapiens.
Series [19] concerns the target T6, ATP-dependent translocase ABCB1 (Homo sapiens, UniProt P08183). Nature of the series: Inhibition of P-gp (unknown origin) ATPase activity.
Series [20] is described as follows: Metabolic stability in rat liver microsome assessed as intrinsic clearance. It counts as ADME. The conditions noted are these: microsomes.
Series [21] in a line: Apparent permeability of compound across basolateral to apical side in human Caco-2 cells. It counts as ADME, cell-based.
Series [22] addresses T6, ATP-dependent translocase ABCB1. Nature of the series: Inhibition of P-gp in human Caco-2 cells in presence of paclitaxel. It counts as cell-based.

T6 sequence (P08183 whole entry): as the sequence (P08183 whole entry) above
Chain of Cytochrome P450 2C9 (P11712 whole entry): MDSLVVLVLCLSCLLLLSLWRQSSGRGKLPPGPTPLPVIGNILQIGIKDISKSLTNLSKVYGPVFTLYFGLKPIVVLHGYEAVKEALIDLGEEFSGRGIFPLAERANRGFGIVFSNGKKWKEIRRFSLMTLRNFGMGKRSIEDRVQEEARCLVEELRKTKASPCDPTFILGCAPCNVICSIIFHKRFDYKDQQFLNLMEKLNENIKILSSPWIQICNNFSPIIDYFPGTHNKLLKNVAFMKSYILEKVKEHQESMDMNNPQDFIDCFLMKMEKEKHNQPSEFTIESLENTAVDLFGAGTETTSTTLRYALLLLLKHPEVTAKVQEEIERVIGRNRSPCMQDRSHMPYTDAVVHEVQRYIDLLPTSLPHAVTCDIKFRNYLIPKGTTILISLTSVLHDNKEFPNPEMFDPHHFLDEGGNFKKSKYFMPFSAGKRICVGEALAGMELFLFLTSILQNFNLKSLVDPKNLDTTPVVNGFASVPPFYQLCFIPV

By IC50 is commonly meant the concentration that gives 50% inhibition. Broadly, the inhibition is the percentage by which the read-out fell short of the control. The term half-life denotes the time needed for the level to fall by half in the phase considered. In general, Papp B→A refers to how fast a substance crosses the layer from the basolateral side. Regarding `COc1cc(NC(=O)c2cc(=O)c3ccccc3o2)c(C(=O)Nc2ccc(C3CCN(Cc4cccc(-n5ccnc5)c4)CC3)cc2)cc1OC`, the half-inhibitory concentration (IC50) stood at 0.089 µM in series [1]; 1.47 µM in series [3]; 36 µM in series [4]; 39 µM in series [5]; 11 µM in series [6]; 36 µM in series [8]. The IC50 in [12] was 0.14 µM; in series [14], more than 10 µM; in series [16], more than 100 µM; in series [18], more than 10 µM; in series [19], 0.021 µM; in series [22], 0.009 µM. Further, in series [2], the recovery was 82%. Besides, the CLH in series [7] was 300 µL/min/mg; in series [20], 95 µL/min/mg. The same molecule came in with a Tlast in [9] of 4.8 h. In series [10], the inhibition at 1 µM amounted to 97%. Also, the half-life came out at 4.9 min in series [11] and 37 min in series [13]. The inhibition at 10 µM in series [15] worked out at 99%. The inhibition at 0.1 µM in series [17] is 89%. The basolateral-to-apical permeability (Papp B→A) in series [21] is less than 0.8 nm/s.
